Test results reported in patent US20260130933A1, “PHARMACEUTICAL COMPOSITION FOR PREVENTION OR TREATMENT OF NEPHROPATHY AND/OR DIABETES MELLITUS, COMPRISING ENAVOGLIFLOZIN” (DAEWOONG PHARMACEUTICAL CO., LTD., priority 2022, published 2026).

Assay: Example 2: phase 3 trial, enavogliflozin 0.3 mg vs dapagliflozin 10 mg once a day for 24 weeks added to metformin in patients with type 2 diabetes (same efficacy, exploratory and safety endpoints)
Format: in vivo, human
Procedure: Subjects who met the inclusion/exclusion criteria were administered a placebo of the clinical trial drug under single-blind (subject blinding) conditions during a 2-week run-in period while continuing to receive metformin. […] The randomized subjects were administered two tablets of the clinical trial drug for each administration group once a day, and then visited the institution at weeks 6, 12, 18, and 24 during the 24-week administration period to conduct efficacy and safety evaluations.
• 1. Change in HbA1c at week 24 after administration of clinical trial drug compared to Visit 2 (randomization)
• 1. Change in HbA1c at each time point of weeks 6, 12, and 18 after administration of clinical trial drug compared to Visit 2 (randomization) • 2. Change in FPG at each time point of weeks 6, 12, 18, and 24 after administration of clinical trial drug compared to Visit 2 (randomization) • 3. Proportion of subjects achieving HbA1c<7% at each time point of weeks 6, 12, 18, and 24 after administration of clinical trial drug • 4. Proportion of subjects achieving HbA1c<6.5% at each time point of weeks 6, 12, 18, and 24 after administration of clinical trial drug • 5. Proportion of subjects achieving therapeutic response (HbA1c change (HbA1c at Visit 2-HbA1c at each evaluation time point)>0.5% or HbA1c<7% at each evaluation time point compared to Visit 2 (randomization)) at each time point of weeks 6, 12, 18 and 24 after administration of clinical trial drug
• 1. Change in fasting c-peptide at each time point of weeks 6, 12, 18, and 24 after administration of clinical trial drug compared to Visit 2 (randomization) • 2. Change in body weight at each time point of weeks 6, 12, 18, and 24 after administration of clinical trial drug compared to Visit 2 (randomization) • 3. Change in fasting lipid concentration (total cholesterol, LDL-C, HDL-C, and triglycerides) at each time point of weeks 6, 12, 18, and 24 after administration of clinical trial drug compared to Visit 2 (randomization) • 4. Changes in systolic or diastolic blood pressure at each time point of weeks 6, 12, 18, and 24 after administration of clinical trial drug compared to Visit 2 (randomization) • 5. Changes in β-cell function and insulin resistance measured by HOMA-β and HOMA-IR at each time point of weeks 6, 12, 18, and 24 after administration of clinical trial drug compared to Visit 2 (randomization) • 6. Changes in renal function-related indicators (UACR, UGCR) measured by UACR at each time point of weeks 6, 12, 18, and 24 after administration of clinical trial drug compared to Visit 2 (randomization) • 7. Changes in obesity-related indicators (adiponectin, leptin) at each time point of weeks 6, 12, 18, and 24 after administration of clinical trial drug compared to Visit 2 (randomization)

[1] = Week 12, mPPS1, enavogliflozin minus dapagliflozin
[2] = Week 12, mPPS2, enavogliflozin minus dapagliflozin
[3] = Week 18, PPS, enavogliflozin minus dapagliflozin

OC[C@H]1O[C@@H](c2cc(Cc3ccc(C4CC4)cc3)c(Cl)c3c2CCO3)[C@H](O)[C@@H](O)[C@@H]1O [Enavogliflozin, (2S,3R,4R,5S,6R)-2-(7-chloro-6 (4-cyclopropylbenzyl)-2,3-dihydrobenzofuran-4-yl)-6-(hydroxymethyl)tetrahydro-2H-pyran-3,4,5-triol]
HDL-C, Mean (SD) (Week 12, mPPS1): 53.08(10.89) mg/dL
HDL-C, Median (Week 12, mPPS1): 52.50 mg/dL
LDL-C change from baseline, ANCOVA LS mean (SE) (Week 12, mPPS1): 1.86(1.68) mg/dL
LDL-C change from baseline, Mean (SD) (Week 12, mPPS1): 0.78(16.26) mg/dL
LDL-C change from baseline, Median (Week 12, mPPS1): 1.00 mg/dL
LDL-C, Mean (SD) (Week 12, mPPS1): 87.58(30.26) mg/dL
LDL-C, Median (Week 12, mPPS1): 79.00 mg/dL
Triglycerides change from baseline, ANCOVA LS mean (SE) (Week 12, mPPS1): −7.53(4.80) mg/dL
Triglycerides change from baseline, Mean (SD) (Week 12, mPPS1): −5.00(57.85) mg/dL
Triglycerides change from baseline, Median (Week 12, mPPS1): 3.00 mg/dL
Triglycerides, Mean (SD) (Week 12, mPPS1): 116.23(59.46) mg/dL
Triglycerides, Median (Week 12, mPPS1): 100.00 mg/dL
HDL-C change from baseline, LS mean difference [1]: 0.06 mg/dL
LDL-C change from baseline, LS mean difference [1]: 1.30 mg/dL
triglycerides change from baseline, LS mean difference [1]: 2.57 mg/dL
Diastolic blood pressure change from baseline, ANCOVA LS mean (SE) (Week 12, mPPS2): −4.19 mmHg
Diastolic blood pressure change from baseline, Mean (SD) (Week 12, mPPS2): −4.33 mmHg
Diastolic blood pressure change from baseline, Median (Week 12, mPPS2): −4.00 mmHg
Diastolic blood pressure, Mean (SD) (Week 12, mPPS2): 72.66 mmHg
Diastolic blood pressure, Median (Week 12, mPPS2): 72.00 mmHg
Systolic blood pressure change from baseline, ANCOVA LS mean (SE) (Week 12, mPPS2): −5.86(1.04) mmHg
Systolic blood pressure change from baseline, Mean (SD) (Week 12, mPPS2): −6.42(9.73) mmHg
Systolic blood pressure change from baseline, Median (Week 12, mPPS2): −6.00 mmHg
Systolic blood pressure, Mean (SD) (Week 12, mPPS2): 123.29(13.73) mmHg
Systolic blood pressure, Median (Week 12, mPPS2): 123.00 mmHg
diastolic blood pressure change from baseline, LS mean difference [2]: 0.16 mmHg
systolic blood pressure change from baseline, LS mean difference [2]: 0.26 mmHg
Adiponectin change from baseline, ANCOVA LS mean (SE) (Week 18, PPS): 1.33 µg/mL
Adiponectin change from baseline, Mean (SD) (Week 18, PPS): 1.26 µg/mL
Adiponectin change from baseline, Median (Week 18, PPS): 1.14 µg/mL
Adiponectin, Mean (SD) (Week 18, PPS): 8.3 µg/mL
Adiponectin, Median (Week 18, PPS): 7.33 µg/mL
HOMA-IR change from baseline, ANCOVA LS mean (SE) (Week 18, PPS): −1.79
HOMA-IR change from baseline, Mean (SD) (Week 18, PPS): −1.58
HOMA-IR change from baseline, Median (Week 18, PPS): −0.94
HOMA-IR, Mean (SD) (Week 18, PPS): 1.86
HOMA-IR, Median (Week 18, PPS): 1.51
HOMA-β change from baseline, ANCOVA LS mean (SE) (Week 18, PPS): 10.97
HOMA-β change from baseline, Mean (SD) (Week 18, PPS): 10.63
HOMA-β change from baseline, Median (Week 18, PPS): 5.75
HOMA-β, Mean (SD) (Week 18, PPS): 56.39
HOMA-β, Median (Week 18, PPS): 40.45
Leptin change from baseline, ANCOVA LS mean (SE) (Week 18, PPS): -2.49 ng/mL
Leptin change from baseline, Mean (SD) (Week 18, PPS): -2.50 ng/mL
Leptin change from baseline, Median (Week 18, PPS): -1.32 ng/mL
Leptin, Mean (SD) (Week 18, PPS): 9.71 ng/mL
Leptin, Median (Week 18, PPS): 7.22 ng/mL
UACR change from baseline, ANCOVA LS mean (SE) (Week 18, PPS): -23.05 g/kg
UACR change from baseline, Mean (SD) (Week 18, PPS): -17480 mg/kg
UACR change from baseline, Median (Week 18, PPS): -0.70 g/kg
UACR, Mean (SD) (Week 18, PPS): 20320 mg/kg
UACR, Median (Week 18, PPS): 9.80 g/kg
UGCR change from baseline, ANCOVA LS mean (SE) (Week 18, PPS): 60.97 mg/mg
UGCR change from baseline, Mean (SD) (Week 18, PPS): 59.41 mg/mg
UGCR change from baseline, Median (Week 18, PPS): 57.54 mg/mg
UGCR, Mean (SD) (Week 18, PPS): 60.98 mg/mg
UGCR, Median (Week 18, PPS): 58.42 mg/mg
HOMA-IR change from baseline, LS mean difference [3]: −0.32
HOMA-β change from baseline, LS mean difference [3]: −2.53
UACR change from baseline, LS mean difference [3]: -10.10 g/kg
UGCR change from baseline, LS mean difference [3]: 18.25 mg/mg
leptin change from baseline, LS mean difference [3]: -1.26 ng/mL
HDL-C change from baseline, ANCOVA LS mean (SE) (Week 18, mPPS1): 2.46(0.66) mg/dL
HDL-C change from baseline, Mean (SD) (Week 18, mPPS1): 1.89(6.20) mg/dL
HDL-C change from baseline, Median (Week 18, mPPS1): 2.50 mg/dL
HDL-C, Mean (SD) (Week 18, mPPS1): 53.49(11.50) mg/dL
HDL-C, Median (Week 18, mPPS1): 52.50 mg/dL
LDL-C change from baseline, ANCOVA LS mean (SE) (Week 18, mPPS1): 1.42(1.86) mg/dL
LDL-C change from baseline, Mean (SD) (Week 18, mPPS1): 0.50(14.20) mg/dL
LDL-C change from baseline, Median (Week 18, mPPS1): -1.00 mg/dL
